In patent US11939307B2, “Phenylmethyl-piperazine derivatives and antiviral uses thereof” (INSTITUTE OF MEDICINAL BIOTECHNOLOGY, CHINESE ACADEMY OF …, priority 2019, dated 2024):
Read-outs that look alike come from different tables or passages of the source.

System: HCV
Test: Assay of anti-HCV activity in HCV-infected Huh7.5 cells (intracellular HCV RNA by one-step quantitative RT-PCR)
Format: cell-based
Settings: Hepatitis C virus, read-out: inhibitory activities (inhibitory levels of the compounds against HCV replication)
In short: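 Huh7.5 cells were infected with HCV particles while compounds were added at 1 μM, then incubated 96 h at 37 °C, 5% CO2. Intracellular HCV RNA was quantified by one-step qRT-PCR, and inhibition was calculated relative to the viral control.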

[1] = compound at 1 μM, Huh7.5 cells infected with HCV, 96 hrs, intracellular HCV RNA vs viral control

Row | Compound | inhibition at 1 µM [1] | inhibition at 1 µM (Huh7.5, 96 h)
1 | CN(C)C1CCN(c2ccc(C#N)c(CN3CCN(C(c4ccc(Cl)cc4)c4ccc(Cl)cc4)CC3)c2)C1 (stereo not drawn) [Compound 85, 2-((4-(bis(4-chlorophenyl)methyl)piperazin-1-yl)methyl)-4-(3-(dimethylamino)pyrrolidin-1-yl)benzonitrile] | > 75% | 
2 | CN(CCN1CCCC1)c1ccc(C#N)c(CN2CCN(C(c3ccc(Cl)cc3)c3ccc(Cl)cc3)CC2)c1 [Compound 86, 2-((4-(bis(4-chlorophenyl)methyl)piperazin-1-yl)methyl)-4-(methyl(2-(pyrrolidin-1-yl)ethyl)amino)benzonitrile] | > 75% | 
3 | CN(CCN1CC1)c1ccc(C#N)c(CN2CCN(C(c3ccc(Cl)cc3)c3ccc(Cl)cc3)CC2)c1 [Compound 87, 4-((2-(aziridin-1-yl)ethyl)(methyl)amino)-2-((4-(bis(4-chlorophenyl)methyl)piperazin-1-yl)methyl)benzonitrile] |  | 50 to 75%
4 | CN1CCCN(c2ccc(C#N)c(CN3CCN(C(c4ccccc4)c4ccc(Cl)cc4)CC3)c2)CC1 (stereo not drawn) [Compound 88, 2-((4-((4-chlorophenyl)(phenyl)methyl)piperazin-1-yl)methyl)-4-(4-methyl-1,4-diazepan-1-yl)benzonitrile] | > 75% | 
5 | CN1CCCN(c2ccc(C#N)c(CN3CCN(C(c4ccncc4)c4ccc(Cl)cc4)CC3)c2)CC1 (stereo not drawn) [Compound 89, 2-((4-((4-chlorophenyl)(pyridin-4-yl)methyl)piperazin-1-yl)methyl)-4-(4-methyl-1,4-diazepan-1-yl)benzonitrile] | > 75% | 
6 | CN(C)CCN(C)c1ccc(C#N)c(CN2CCC(C(c3ccc(Cl)cc3)c3ccc(Cl)cc3)CC2)c1 [Compound 90, 2-((4-(bis(4-chlorophenyl)methyl)piperidin-1-yl)methyl)-4-((2-(dimethylamino)ethyl)(methyl)amino)benzonitrile] | > 75% | 
7 | CN1CCCN(c2ccc(C#N)c(CN3CCC(C(c4ccc(F)cc4)c4ccc(F)cc4)CC3)c2)CC1 [Compound 91, 2-((4-(bis(4-fluorophenyl)methyl)piperidin-1-yl)methyl)-4-(4-methyl-1,4-diazepan-1-yl)benzonitrile] | > 75% | 
8 | CN1CCC(N(C)c2ccc(C(F)(F)F)c(CN3CCN(c4ccc(Cl)cc4)CC3)c2)C1 (stereo not drawn) [Compound 92] | > 75% | 
9 | CCN(C)CCN(C)c1ccc(C#N)c(CN2CCN(C(C)c3cnccn3)CC2)c1 (stereo not drawn) [Compound 93, 4-[{2-[ethyl(methyl)amino]ethyl}(methyl)amino)-2-({4-[1-(pyrazin-2-yl)ethyl]piperazin-1-yl}methyl)benzonitrile] | 50 to 75% | 
10 | CCN(CC)CCN(C)c1ccc(C(F)(F)F)c(CN2CCN(C(c3ccc(Cl)c(Cl)c3)c3ccc(Cl)c(Cl)c3)CC2)c1 [Compound 94, N1-(3-[{4-[bis(3,4-dichlorophenyl)methyl]piperazin-1-yl}methyl]-4-(trifluoromethyl)phenyl)-N2,N2-diethyl-N1-methylethan-1,2-diamine] | > 75% | 
11 | Cc1cc(C(c2ccc(Cl)c(C)c2)N2CCN(Cc3cc(N(C)CCN(C)C)ccc3C#N)CC2)ccc1Cl [Compound 95, 2-({4-[bis(4-chloro-3-methylphenyl)methyl]piperazin-1-yl}methyl)-4-{[2-(dimethylamino)ethyl](methyl)amino)benzonitrile] | > 75% | 
12 | CN1CCCN(c2ccc(C(F)(F)F)c(CN3CCN(C(c4ccc(Cl)c(Cl)c4)C4CCCCC4)CC3)c2)CC1 (stereo not drawn) [Compound 96, 1-[3-({4-[cyclohexyl(3,4-dichlorophenyl)methyl]piperazin-1-yl}methyl)-4-(trifluoromethyl)phenyl]-4-methyl-1,4-diazepane] | > 75% | 
13 | CN1CCCN(c2ccc(C#N)c(CN3CCN(C(c4ccc(Cl)cc4)C4CCC4)CC3)c2)CC1 (stereo not drawn) [Compound 97, 2-({4-[(4-chlorophenyl)(cyclobutyl)methyl]piperazin-1-yl}methyl)-4-(4-methyl-1,4-diazepan-1-yl)benzonitrile] | > 75% | 
14 | CN1CCN(c2ccc(C#N)c(CN3CCN(C(c4ccc(C(F)(F)F)cc4)c4cnccn4)CC3)c2)CC1 (stereo not drawn) [Compound 99] | 50 to 75% | 
15 | CN1CCCN(c2ccc(C(F)(F)F)c(CN3CCN(C(c4ccc(Oc5ccccc5)cc4)c4ccccn4)CC3)c2)CC1 (stereo not drawn) [Compound 100, 1-methyl-4-[3-({4-[(4-phenoxyphenyl)(pyridin-2-yl)methyl]piperazin-1-yl}methyl)-4-(trifluoromethyl)phenyl]-1,4-diazepane] | 50 to 75% | 
16 | CCN1CCC(N(C)c2ccc(C(F)(F)F)c(CN3CCN(C(c4ccc(Sc5ccccc5)cc4)c4ccc(Sc5ccccc5)cc4)CC3)c2)C1 (stereo not drawn) [Compound 101, N-{3-([4-{bis[4-(phenylthio)phenyl]methyl}piperazin-1-yl]methyl)-4-(trifluoromethyl)phenyl}-1-ethyl-N-methylpyrrolidin-3-amine] | > 75% | 
17 | CSc1ccc(C(c2ccc(SC)cc2)N2CCN(Cc3cc(N(C)CCN(C)C)ccc3C#N)CC2)cc1 [Compound 102, 2-({4-(bis(4-(methylthio)phenyl]methyl}piperazin-1-yl)methyl)-4-{[2-(dimethylamino)ethyl](methyl)amino}benzonitrile] | > 75% | 
18 | CN(CCN1CCCC1)c1ccc(C(F)(F)F)c(CN2CCN(C(c3ccc(C(F)(F)F)cc3)c3ccc(C(F)(F)F)cc3)CC2)c1 [Compound 103, 3-([4-{bis[4-(trifluoromethyl)phenyl]methyl}piperazin-1-yl]methyl)-N-methyl-N-[2-(pyrrolidin-1-yl)ethyl]-4-(trifluoromethyl)aniline] | > 75% | 
19 | CN(C)CCN(C)c1ccc(C#N)c(CN2CCN(C(c3ccc(C#N)cc3)C3CCCC3)CC2)c1 (stereo not drawn) [Compound 104, 2-({4-[(4-cyanophenyl)(cyclopentyl)methyl]piperazin-1-yl}methyl)-4-{[2-(dimethylamino)ethyl](methyl)amino}benzonitrile] | > 75% | 
20 | CC(c1ccc(C#N)cc1)N1CCN(Cc2cc(N(C)CCN(C)C)ccc2C(F)(F)F)CC1 (stereo not drawn) [Compound 105, 4-{1-(4-[5-{[2-(dimethylamino)ethyl](methyl)amino}-2-(trifluoromethyl)benzyl]piperazin-1-yl)ethyl}benzonitrile] | > 75% | 
21 | N#Cc1ccc(NCCCn2ccnc2)cc1CN1CCN(C(c2ccc(Cl)cc2)c2ccc(Cl)cc2)CC1 [Compound 106, 4-([3-(1H-imidazol-1-yl)propyl]amino)-2-({4-[bis(4-chlorophenyl)methyl]piperazin-1-yl}methyl)benzonitrile] | > 75% | 
22 | CN(C)CCN(C)c1ccc(C(F)(F)F)c(CN2CCN(c3ccc(Cl)c(Cl)c3)CC2)c1 [Compound 107, N^1-(3-((4-(3,4-dichlorophenyl)piperazin-1-yl)methyl)-4-(trifluoromethyl)phenyl)-N^1,N^2,N^2-trimethylethan-1,2-diamine] | > 75% | 
23 | Cc1cc(N2CCN(Cc3cc(N(C)CCN(C)C)ccc3C(F)(F)F)CC2)ccc1Cl [Compound 108, N^1-(3-((4-(4-chloro-3-methylphenyl)piperazin-1-yl)methyl)-4-(trifluoromethyl)phenyl)-N^1,N^2,N^2-trimethylethan-1,2-diamine] | > 75% | 
24 | CN1CCCN(c2ccc(C(F)(F)F)c(CN3CCN(c4ccc(Cl)c(Cl)c4)CC3)c2)CC1 [Compound 109, 1-(3-((4-(3,4-dichlorophenyl)piperazin-1-yl)methyl)-4-(trifluoromethyl)phenyl)-4-methyl-1,4-diazepane] | > 75% | 
